≈ marks a conversion by molar mass, not a printed value.

The values that follow come from ChEMBL document CHEMBL2380306 (Bioorg Med Chem Lett, 2013).

Series [1] can be described thus: physchem. As to conditions: buffer, pH 7.4.
Series [2] is described as follows: Aqueous kinetic solubility of the compound at pH 6.5. In kind it is physicochemical. As to conditions: read-out: Kinetic_solubility.
Series [3] can be described thus: Apparent permeability across MDCK2 cells. In kind it is ADME, cell-based, Canis lupus familiaris, MDCK-II. Particulars: dog, MDCK.
Series [4] is described as follows: Oral bioavailability in Wistar-Han rat at 5 mg/kg. In kind it is ADME, organism-based. As to conditions: in vivo.
The nature of series [5]: Apparent permeability across human Caco2 cells at pH 6.5. Type of series: ADME, cell-based. As to conditions: Caco-2, pH 6.5.
The nature of series [6]: Oral bioavailability in Wistar-Han rat at 50 mg/kg. Type of series: ADME, organism-based. Particulars: in vivo.
A short description of series [7]: Apparent permeability across human Caco2 cells at pH 7.4. In kind it is ADME, cell-based. As to conditions: Caco-2, pH 7.4.
The nature of series [8]: Volume of distribution at steady state in Wistar-Han rat at 1 mg/kg, iv and 50 mg/kg, po. Type of series: ADME, organism-based. As to conditions: in vivo, read-out: Vdss.
Series [9] can be described thus: Oral bioavailability in Beagle dog at 5 mg/kg. As to conditions: in vivo. In kind it is ADME, organism-based, Canis lupus familiaris.
Series [10] is described as follows: Volume of distribution at steady state in Beagle dog at 0.5 mg/kg, iv and 5 mg/kg, po. In kind it is ADME, organism-based, Canis lupus familiaris. As to conditions: in vivo, read-out: Vdss.
Series [11] is described as follows: Oral bioavailability in Beagle dog at 4 mg/kg. In kind it is ADME, organism-based, Canis lupus familiaris. Particulars: in vivo.
Series [12] can be described thus: Drug excretion in Wistar-Han rat bile at 5 mg/kg, iv. In kind it is ADME, organism-based. On the set-up: dose 5 mg/kg, route intravenous. Particulars: read-out: Drug excretion.

Take `CCCC(Oc1ccc(-n2cc3c(n2)CCCC3)cc1)c1ccc(C(=O)NCCC(=O)O)cc1` (racemic): the logD in series [1] came to 2.7.
Still for that read-out and setting: as for `O=C(O)CCNC(=O)c1ccc(C(Oc2ccc(-n3cc(C(F)(F)F)cn3)cc2)C2CCCC2)cc1` (racemic), the figure is 3.3.
On the same count and under the same terms, as for `CCCC(Oc1ccc(-n2cccn2)cc1)c1ccc(C(=O)NCCC(=O)O)cc1` (racemic), the figure is 1.7.
Take `CCCC(Oc1ccc(-n2cc(Cl)cn2)cc1)c1ccc(C(=O)NCCC(=O)O)cc1` (racemic): the solubility kinetic in series [2] was 70 µM (≈ 30.9 µg/mL). Further, in series [1], the logD came out at 2.6.
`CCCC(Nc1ccc(-n2cc(C(F)(F)F)cn2)cn1)c1ccc(C(=O)NCCC(=O)O)cc1` (racemic): the Papp in series [3] amounted to 0.8 ×10⁻⁶ cm/s. The same molecule had a logD in series [1] of 1.3.
With `CCCC(Oc1ccc(-n2cc(C(F)(F)F)cn2)c(C)c1)c1ccc(C(=O)NCCC(=O)O)cc1` (racemic), in series [1], the logD worked out at 2.6.
Turning to `CCCC(Oc1ccc(-n2cc(C(=O)N(C)C)cn2)cc1)c1ccc(C(=O)NCCC(=O)O)cc1` (racemic), the logD in [1] worked out at 0.5.
Take `O=C(O)CCNC(=O)c1ccc(C(Oc2ccc(-n3cc(C(F)(F)F)cn3)cc2)C2CC2)cc1` (racemic): the logD in series [1] was found to be 1.7.
Take `CCCC(Nc1cnc(-n2cc(C(F)(F)F)cn2)nc1)c1ccc(C(=O)NCCC(=O)O)cc1` (racemic): the solubility kinetic in [2] is 380 µM (≈ 181 µg/mL). Moreover, in series [3], the Papp was 0.8 ×10⁻⁶ cm/s. Further, in series [1], the logD worked out at 1.3.
`O=C(O)CCNC(=O)c1ccc(C(Oc2ccc(-n3cc(C(F)(F)F)cn3)cc2)C2CCC2)cc1` (racemic): the logD in series [1] is 2.6.
On the same count and under the same terms, as for `CC(C)(C)C(Oc1ccc(-n2cc(C(F)(F)F)cn2)cc1)c1ccc(C(=O)NCCC(=O)O)cc1` (racemic), the figure is 3.7.
Same read-out and setting: as for `CCCC(Oc1ccc(-n2cc(F)cn2)cc1)c1ccc(C(=O)NCCC(=O)O)cc1` (racemic), the figure is 2; as for `CC(C)CC(Oc1ccc(-n2cc(C(F)(F)F)cn2)cc1)c1ccc(C(=O)NCCC(=O)O)cc1` (racemic), 3.2; as for `CCCC(Oc1cc(C)c(-n2cc(C(F)(F)F)cn2)c(C)c1)c1ccc(C(=O)NCCC(=O)O)cc1` (racemic), 2.6.
For `CCCC(Oc1ccc(-n2cc(C(F)(F)F)cn2)cc1)c1ccc(C(=O)NCCC(=O)O)cc1` (racemic), the solubility kinetic in series [2] was 400 µM (≈ 190 µg/mL). Besides, the Papp in series [3] was determined as 3.1 ×10⁻⁶ cm/s. In series [1], this molecule registered a logD of 2.4.
Consider `CCCC(Oc1ccc(-n2cnc(C(F)(F)F)c2)cc1)c1ccc(C(=O)NCCC(=O)O)cc1` (racemic), for which, in [3], the Papp worked out at 2.3 ×10⁻⁶ cm/s.
With `CCCC(Oc1ccc(-n2cc(C(F)(F)F)cn2)nc1)c1ccc(C(=O)NCCC(=O)O)cc1` (racemic), the Papp in series [3] is 3.4 ×10⁻⁶ cm/s. The same molecule displayed a logD in [1] of 2.6.
In series [4], `CCCC(Oc1ccc(-n2cc(C(F)(F)F)cn2)cc1)c1ccc(C(=O)NCCC(=O)O)cc1` (single isomer, unassigned) had a bioavailability of 60%.
Consider `CCCC(Oc1cnc(-n2cc(C(F)(F)F)cn2)nc1)c1ccc(C(=O)NCCC(=O)O)cc1` (racemic), for which the logD in series [1] is 1.5.
The same measure, in the same setting: for `CCCC(Oc1ccc(-n2cc(C#N)cn2)cc1)c1ccc(C(=O)NCCC(=O)O)cc1` (racemic) the value was 1.2.
The same measure, in the same setting: as for `CC(C)C(Oc1ccc(-n2cc(C(F)(F)F)cn2)cc1)c1ccc(C(=O)NCCC(=O)O)cc1` (racemic), the figure is 2.6; as for `CCCC(Oc1ccc(-n2cc(C)cn2)cc1)c1ccc(C(=O)NCCC(=O)O)cc1` (racemic), 2.1.
Turning to `CCCC(Nc1cc(C)c(-n2cc(C(F)(F)F)cn2)c(C)c1)c1ccc(C(=O)NCCC(=O)O)cc1` (racemic), the Papp in series [3] is 2.7 ×10⁻⁶ cm/s. Besides, the logD in series [1] amounted to 2.2.
Turning to `CCCC(Oc1ccc(-n2cc(C(F)(F)F)c(C)n2)cc1)c1ccc(C(=O)NCCC(=O)O)cc1` (racemic), in [1], the logD amounted to 2.8.
For `CCCC(Nc1ccc(-n2cnc(C(F)(F)F)c2)cc1)c1ccc(C(=O)NCCC(=O)O)cc1` (racemic), the solubility kinetic in series [2] is 350 µM (≈ 166 µg/mL). Moreover, the Papp in [3] is 0.6 ×10⁻⁶ cm/s. Further, the pH-dependent lipophilicity (logD) in series [1] stood at 1.3.
`CCCC(Oc1ccc(-n2cc3ccccc3n2)cc1)c1ccc(C(=O)NCCC(=O)O)cc1` (single isomer, unassigned) gave a bioavailability in series [4] of 3%. In addition, the Papp in [3] amounted to 2.2 ×10⁻⁶ cm/s.
`CCC(Oc1ccc(-n2cc(C(F)(F)F)cn2)cc1)c1ccc(C(=O)NCCC(=O)O)cc1` (racemic) showed a logD in series [1] of 1.9.
Turning to `CCC[C@H](Oc1cc(C)c(-n2cc(C(F)(F)F)cn2)c(C)c1)c1ccc(C(=O)NCCC(=O)O)cc1` [PF-06291874], the Papp in [5] came out at 30 ×10⁻⁶ cm/s; in [7] it was 8.5 ×10⁻⁶ cm/s; in series [3], 3.6 ×10⁻⁶ cm/s. The bioavailability in series [6] and in [9] was 100% in each case. Also, the Vd was 0.4 L/kg in series [8] and 0.31 L/kg in series [10]. The logD in series [1] amounted to 2.5.
As for `CCCC(Oc1ccc(-n2cc(OC)cn2)cc1)c1ccc(C(=O)NCCC(=O)O)cc1` (racemic), the pH-dependent lipophilicity (logD) in series [1] was determined as 1.4.
Still for that read-out and setting: as for `CCCC(Oc1ccc(-n2cc3ccccc3n2)cc1)c1ccc(C(=O)NCCC(=O)O)cc1` (racemic), the figure is 2.5.
As for `CCC[C@H](c1ccc(C(=O)NCCC(=O)O)cc1)[C@H](c1ccc(Cl)cc1)c1c[nH]c2c(F)cc(C)cc12` [MK-3577], the figures for the bioavailability in series [4] and in [11] were 7% and 30%, respectively. Besides, the solubility kinetic in series [2] turned out to be 23 µM (≈ 12 µg/mL).
With `CCCC(Nc1ccc(-n2cc(C(F)(F)F)cn2)nc1)c1ccc(C(=O)NCCC(=O)O)cc1` (racemic), the Papp in series [3] amounted to 4.6 ×10⁻⁶ cm/s. The molecule also displayed a logD in [1] of 2.1.
Turning to `CCC[C@@H](Oc1cc(C)c(-n2cc(C(F)(F)F)cn2)c(C)c1)c1ccc(C(=O)NCCC(=O)O)cc1`, the logD in [1] is 2.7.
On to `CCCC(Nc1ccc(-n2cnc(C(F)(F)F)c2)cc1)c1ccc(C(=O)NCCC(=O)O)cc1` (single isomer, unassigned), for which the dose excreted in series [12] stood at 57%.
Take `CCCC(Nc1ccc(-n2cc(C(F)(F)F)cn2)cc1)c1ccc(C(=O)NCCC(=O)O)cc1` (racemic): the solubility kinetic in series [2] was 350 µM (≈ 166 µg/mL). For the same molecule, in series [3], the apparent permeability coefficient (Papp) was determined as 4 ×10⁻⁶ cm/s. The molecule also displayed a logD in series [1] of 1.9.
